Assay results from paper PMC4114533, “Synthesis, Anti-tubulin and Antiproliferative SAR of Steroidomimetic Dihydroisoquinolinones” (Chemmedchem, 2014).

How the values were obtained:
[1] = system: DU-145 human prostate cancer cells; test: Antiproliferative assay (WST-1, 96 h), DU-145; format: cell-based; settings: for GI50: Homo sapiens, DU-145 cells, 96 h, WST-1, mean of three determinations; for antiproliferative activity (in words): in vitro antiproliferative activity, result in words
Experimental: (§1) Cell lines: DU-145 (brain metastasis carcinoma of the prostate) and MDA MB-231 (metastatic pleural effusion of breast adenocarcinoma) established human cell lines were obtained from ATCC Global Bioresource Center. Cells were maintained in a 5 % CO2 humidified atmosphere at 37 °C in RPMI-1640 medium, supplemented with 10 % fetal bovine serum, penicillin, (100 U mL^−1), and streptomycin (0.1 mg mL^−1). The effect of drugs on tubule formation was assessed using an angiogenesis kit (TCS-Cellworks).
(§2) Antiproliferative assays: DU-145 and MDA MB-231 cells were seeded into 96-well microtitre plates (5000 cells per well) and treated with compound (10^−9–10^−4 M) or with vehicle control. At 96 h post-treatment, live cell counts were determined by WST-1 cell proliferation assay (Roche, Penzberg, Germany), as per the manufacturer’s instructions. Viability results were expressed as a percentage of mean control values resulting in the calculation of the 50 % growth inhibition (GI50). All experiments were performed in triplicate.

[2] = system: MDA MB-231 human breast cancer cells; test: Antiproliferative assay (WST-1, 96 h), MDA MB-231; format: cell-based; settings: MDA MB-231 cells, WST-1, mean of three determinations
Experimental: as §1, §2

Bovine brain tubulin = molecular target: T1, Bovine brain tubulin (Bos taurus, UniProt P81947+Q6B856); test: Inhibition of [3H]colchicine binding to tubulin; settings: 1 μM inhibitor, mean ±SD; read-out: CB [% inhib.] 1 μM inhibitor
T1 construct: from tissue; host or cells: bovine brain
T1 sequence (Q6B856 whole entry): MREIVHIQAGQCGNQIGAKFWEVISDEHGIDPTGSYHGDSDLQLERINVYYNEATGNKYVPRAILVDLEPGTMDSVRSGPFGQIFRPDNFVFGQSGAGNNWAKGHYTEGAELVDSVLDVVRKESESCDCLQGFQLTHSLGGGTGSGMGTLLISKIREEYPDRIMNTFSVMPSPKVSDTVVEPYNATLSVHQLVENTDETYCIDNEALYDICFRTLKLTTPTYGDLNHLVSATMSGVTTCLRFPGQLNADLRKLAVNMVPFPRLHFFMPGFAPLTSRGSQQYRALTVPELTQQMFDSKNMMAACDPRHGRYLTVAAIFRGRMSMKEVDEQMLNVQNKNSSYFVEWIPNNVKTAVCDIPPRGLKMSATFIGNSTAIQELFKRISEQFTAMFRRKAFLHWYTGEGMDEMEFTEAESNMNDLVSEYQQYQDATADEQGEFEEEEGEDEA
T1 sequence (P81947 whole entry): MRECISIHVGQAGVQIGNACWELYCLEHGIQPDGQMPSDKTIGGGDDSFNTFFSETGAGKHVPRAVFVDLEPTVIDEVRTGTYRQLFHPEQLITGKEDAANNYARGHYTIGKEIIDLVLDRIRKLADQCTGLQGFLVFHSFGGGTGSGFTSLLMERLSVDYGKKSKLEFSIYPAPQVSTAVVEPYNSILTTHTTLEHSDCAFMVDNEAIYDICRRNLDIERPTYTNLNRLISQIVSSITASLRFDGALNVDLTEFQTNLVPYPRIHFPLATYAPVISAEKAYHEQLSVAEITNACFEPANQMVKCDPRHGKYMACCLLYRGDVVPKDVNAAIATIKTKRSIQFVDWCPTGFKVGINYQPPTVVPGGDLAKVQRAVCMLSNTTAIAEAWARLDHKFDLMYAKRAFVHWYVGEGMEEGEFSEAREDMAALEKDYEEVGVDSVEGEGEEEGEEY
Experimental: Tubulin assays: Bovine brain tubulin, prepared as described previously,[16] was used in studies presented here. Assembly IC50 values were determined as described in detail elsewhere.[17] Briefly, 1.0 mg mL^−1 (10 μM) tubulin was pre-incubated without GTP with varying compound concentrations for 15 min at 30 °C. Reaction mixtures were placed on ice, and GTP (final concentration, 0.4 mM) was added. The reaction mixtures were transferred to cuvettes, held at 0 °C in a recording spectrophotometer. Baselines were established at 0 °C, and increase in turbidity was followed for 20 min following a rapid (<30 s) jump to 30 °C. Compound concentrations required to decrease the turbidity increase by 50 % were determined. The method for measuring inhibition of the binding of [^3H]colchicine to tubulin was described in detail previously.[18] Reaction mixtures contained 0.1 mg mL^−1 (1.0 μM) tubulin, 5.0 μM [^3H]colchicine, and potential inhibitor at 5.0 μM. […] A minimum of two experiments were performed with each compound.

Compound | GI50 [1] [µM] | melting point [°C] | GI50 [2] [µM] | antiproliferative activity (in words) [1] | inhibition at 1 µM (Bovine brain tubulin) [%]
COc1cccc(CN2CCc3cc(O)c(OC)cc3C2=O)c1 [8 b, 6-Hydroxy-7-methoxy-2-(3-methoxybenzyl)-3,4-dihydroisoquinolin-1(2H)-one] | > 100 | 181 to 182 | – | – | –
COc1ccc(CN2CCc3cc(O)c(OC)cc3C2=O)cc1 [8 c, 6-Hydroxy-7-methoxy-2-(4-methoxybenzyl)-3,4-dihydroisoquinolin-1(2H)-one] | > 100 | 171 to 172 | – | – | –
COc1cccc(CN2CCc3cc(OS(N)(=O)=O)c(OC)cc3C2=O)c1 [9 b, 7-Methoxy-2-(3-methoxybenzyl)-6-sulfamoyloxy-3,4-dihydroisoquinolin-1(2H)-one] | > 100 | 139 to 140 | – | – | –
COc1cc2c(cc1OCc1ccccc1)CCN(S(=O)(=O)c1ccccc1OC)C2=O [10 a, 6-Benzyloxy-7-methoxy-2-((2-methoxyphenyl)sulfonyl)-3,4-dihydroisoquinolin-1(2H)-one] | > 100 | – | > 100 | – | –
COc1cccc(S(=O)(=O)N2CCc3cc(OCc4ccccc4)c(OC)cc3C2=O)c1 [10 b, 6-Benzyloxy-7-methoxy-2-((3-methoxyphenyl)sulfonyl)-3,4-dihydroisoquinolin-1(2H)-one] | > 100 | – | > 100 | – | –
COc1cc2c(cc1OCc1ccccc1)CCN(S(=O)(=O)c1cccc(Cl)c1)C2=O [10 d, 6-Benzyloxy-7-methoxy-2-((3-chlorophenyl)sulfonyl)-3,4-dihydroisoquinolin-1(2H)-one] | > 100 | – | > 100 | – | –
COc1cc2c(cc1O)CCN(S(=O)(=O)c1ccccc1OC)C2=O [11 a, 6-Hydroxy-7-methoxy-2-((2-methoxyphenyl)sulfonyl)-3,4-dihydroisoquinolin-1(2H)-one] | > 100 | – | 13.4 | – | –
COc1cccc(S(=O)(=O)N2CCc3cc(O)c(OC)cc3C2=O)c1 [11 b, 6-Hydroxy-7-methoxy-2-((3-methoxyphenyl)sulfonyl)-3,4-dihydroisoquinolin-1(2H)-one] | > 100 | – | > 100 | – | –
COc1ccc(S(=O)(=O)N2CCc3cc(O)c(OC)cc3C2=O)cc1 [11 c, 6-Hydroxy-7-methoxy-2-((4-methoxyphenyl)sulfonyl)-3,4-dihydroisoquinolin-1(2H)-one] | > 100 | 202 to 204 | > 100 | – | –
COc1cc2c(cc1O)CCN(S(=O)(=O)c1cccc(Cl)c1)C2=O [11 d, 6-Hydroxy-7-methoxy-2-((3-chlorophenyl)sulfonyl)-3,4-dihydroisoquinolin-1(2H)-one] | > 100 | 178 to 181 | > 100 | – | –
COC(=O)c1ccccc1S(=O)(=O)N1CCc2cc(O)c(OC)cc2C1=O [11 e, Methyl 2-((6-hydroxy-7-methoxy-1-oxo-3,4-dihydroisoquinolin-2(1H)-yl)sulfonyl)benzoate] | > 100 | 236 to 239 | > 100 | – | –
COc1cc2c(cc1OS(N)(=O)=O)CCN(S(=O)(=O)c1ccccc1OC)C2=O [12 a, 7-Methoxy-2-((2-methoxyphenyl)sulfonyl)-6-(sulfamoyloxy)-3,4-dihydroisoquinolin-1(2H)-one] | > 100 | 195 to 197 | > 100 | – | –
COc1cccc(S(=O)(=O)N2CCc3cc(OS(N)(=O)=O)c(OC)cc3C2=O)c1 [12 b, 7-Methoxy-2-((3-methoxyphenyl)sulfonyl)-6-(sulfamoyloxy)-3,4-dihydroisoquinolin-1(2H)-one] | > 100 | 164 to 166 | > 100 | – | –
COc1ccc(S(=O)(=O)N2CCc3cc(OS(N)(=O)=O)c(OC)cc3C2=O)cc1 [12 c, 7-Methoxy-2-((4-methoxyphenyl)sulfonyl)-6-(sulfamoyloxy)-3,4-dihydroisoquinolin-1(2H)-one] | > 100 | – | > 100 | – | –
COc1cc2c(cc1OS(N)(=O)=O)CCN(S(=O)(=O)c1cccc(Cl)c1)C2=O [12 d, 2-((3-Chlorophenyl)sulfonyl)-7-methoxy-6-(sulfamoyloxy)-3,4-dihydroisoquinolin-1(2H)-one] | > 100 | 170 to 173 | > 100 | – | –
COC(=O)c1ccccc1S(=O)(=O)N1CCc2cc(OS(N)(=O)=O)c(OC)cc2C1=O [12 e, Methyl 2-((7-methoxy-1-oxo-6-(sulfamoyloxy)-3,4-dihydroisoquinolin-2(1H)-yl)sulfonyl)benzoate] | > 100 | 181 to 186 | 13 | – | –

Compound | GI50 [1] [µM] | melting point [°C] | GI50 [2] [µM] | antiproliferative activity (in words) [1] | inhibition at 1 µM (Bovine brain tubulin) [%]
COc1cc2c(cc1OCc1ccccc1)CCN(C(=O)c1cc(OC)c(OC)c(OC)c1)C2 [14 g, 6-Benzyloxy-7-methoxy-2-(3,4,5-trimethoxybenzoyl)-1,2,3,4-tetrahydroisoquinoline] | 62.7 | – | 18.9 | – | –
COc1cc2c(cc1OCc1ccccc1)CCN(C(=O)c1ccccc1OC)C2=O [15 a, 6-Benzyloxy-2-(2-methoxybenzoyl)-7-methoxy-3,4-dihydroisoquinolin-1(2H)-one] | > 100 | – | 43.6 | – | –
COc1cc2c(cc1OCc1ccccc1)CCN(C(=O)c1cccc(C#N)c1)C2=O [15 c, 6-Benzyloxy-2-(3-cyanobenzoyl)-7-methoxy-3,4-dihydroisoquinolin-1(2H)-one] | > 100 | – | > 100 | – | –
COc1cc2c(cc1OCc1ccccc1)CCN(C(=O)c1cc(OC)c(OC)c(OC)c1)C2=O [15 g, 6-Benzyloxy-7-methoxy-2-(3,4,5-trimethoxybenzoyl)-3,4-dihydroisoquinolin-1(2H)-one] | > 100 | – | 77.5 | – | –
COc1cc2c(cc1O)CCN(C(=O)c1ccccc1OC)C2=O [16 a, 6-Hydroxy-2-(2-methoxybenzoyl)-7-methoxy-3,4-dihydroisoquinolin-1(2H)-one] | 6.42 | – | 5.6 | – | –
COc1cccc(C(=O)N2CCc3cc(O)c(OC)cc3C2=O)c1 [16 b, 6-Hydroxy-2-(3-methoxybenzoyl)-7-methoxy-3,4-dihydroisoquinolin-1(2H)-one] | 3.63 | – | 1.89 | – | –
COc1cc2c(cc1O)CCN(C(=O)c1cccc(C#N)c1)C2=O [16 c, 2-(3-Cyanobenzoyl)-6-hydroxy-7-methoxy-3,4-dihydroisoquinolin-1(2H)-one] | 70 | – | 37.4 | – | –
COc1cc2c(cc1O)CCN(C(=O)c1ccc(OC)c(OC)c1)C2=O [16 e, 6-Hydroxy-2-(3,4-dimethoxybenzoyl)-7-methoxy-3,4-dihydroisoquinolin-1(2H)-one] | 2.39 | 199 to 200 | 1.6 | – | –
COc1cc2c(cc1OS(N)(=O)=O)CCN(C(=O)c1ccccc1OC)C2=O [17 a, 2-(2-Methoxybenzoyl)-7-methoxy-6-sulfamoyloxy-3,4-dihydroisoquinolin-1(2H)-one] | 9.1 | – | 7.1 | – | –
COc1cccc(C(=O)N2CCc3cc(OS(N)(=O)=O)c(OC)cc3C2=O)c1 [17 b, 2-(3-Methoxybenzoyl)-7-methoxy-6-sulfamoyloxy-3,4-dihydroisoquinolin-1(2H)-one] | 5.3 | – | 3.5 | – | –
COc1cc2c(cc1OS(N)(=O)=O)CCN(C(=O)c1cccc(C#N)c1)C2=O [17 c, 2-(3-Cyanobenzoyl)-7-methoxy-6-sulfamoyloxy-3,4-dihydroisoquinolin-1(2H)-one] | 25 | 171 to 172 | > 100 | – | –
COc1ccc(C(=O)N2CCc3cc(OS(N)(=O)=O)c(OC)cc3C2=O)cc1 [17 d, 2-(4-Methoxybenzoyl)-7-methoxy-6-sulfamoyloxy-3,4-dihydroisoquinolin-1(2H)-one] | > 100 | 171 to 172 | – | inactive | –
COc1ccc(C(=O)N2CCc3cc(OS(N)(=O)=O)c(OC)cc3C2=O)cc1OC [17 e, 2-(3,4-Dimethoxybenzoyl)-7-methoxy-6-sulfamoyloxy-3,4-dihydroisoquinolin-1(2H)-one] | 3.4 | – | 2.08 | – | –
COc1ccc(C(=O)N2CCc3cc(OS(N)(=O)=O)c(OC)cc3C2)cc1OC [19 a, 2-(3,4-Dimethoxybenzoyl)-7-methoxy-6-sulfamoyloxy-1,2,3,4-tetrahydroisoquinoline] | > 100 | – | – | completely inactive | –
COc1cc(OC)cc(C(=O)N2CCc3cc(OS(N)(=O)=O)c(OC)cc3C2)c1 [19 b, 2-(3,5-Dimethoxybenzoyl)-7-methoxy-6-sulfamoyloxy-1,2,3,4-tetrahydroisoquinoline] | 9 | – | – | – | –
COc1ccc(/C=C\c2cc(OC)c(OC)c(OC)c2)cc1O [CA-4, combretastatin A-4, reference compound] | – | – | – | – | 90 ± 0.2
